Test results reported in PubChem BioAssay AID1963965 (Molecular Pharmacology Branch, DTP, NCI, 2024).

System: 996289-038-R-J1-PDC spheroid viability
Experiment: Anticancer human tumor 996289-038-R-J1-PDC patient-derived colon adenocarcinoma cell line growth inhibition [PI3K]
Details: spheroids with HUVEC and MSC; for IC50: curve of first compound; for viability, T/C: stronger effect = lower value; active means viability on the fitted dose curve at most 10% of control; inactive means the rest
Description: Combinatorial screen of targeted agents with the PI3K inhibitors inavolisib, alpelisib, duvelisib, and copanlisib in multi-cell type tumor spheroids
A high-throughput screen of multi-cell type tumor spheroids was designed to identify active combinations of targeted small molecules and PI3K pathway inhibitors. Complex spheroids include a stromal component modeled by human endothelial cells (HUVEC) and fibroblasts modeled by human mesenchymal stem cells (MSCs). The concentration ranges selected for each drug and investigational agent were based upon clinically achievable concentrations if the clinical Cmax of the agent was known.
Compounds. The drugs and investigational agents: inavolisib (NSC800729), alpelisib (NSC765974), duvelisib (NSC772469), copanlisib (NSC816437), ipatasertib (NSC767898), afuresertib (NSC778305), talazoparib (NSC767125), sapanisertib (NSC764658), selumetinib (NSC741078), tovorafenib (DAY101, NSC766906), vemurafenib (NSC761431), ravoxertinib (NSC781343), sotorasib (NSC818433), MRTX1133 (NSC 836407), abemaciclib (NSC 768073), palbociclib (NSC758247), venetoclax (NSC 766270), SY5609 (NSC837396), enzalutamide (NSC755605), and darolutamide (NSC825331), were obtained from the National Cancer Institute (NCI) Developmental Therapeutics Program Chemical Repository. The FDA-approved anticancer drug set is available from the NCI Developmental Therapeutics Program. […] The stock solutions were prepared in dimethyl sulfoxide (DMSO, Sigma-Aldrich, St. Louis, MO, cat. D2650) at 800-fold the tested concentration and stored at -70 degrees C prior to their use. All drugs and investigational agents were tested over a range starting from a high concentration at or near the clinical Cmax and decreasing in half-log increments. If the clinical Cmax for an agent had not been determined, the highest concentration tested was 10 microM.
Cell Culture. All cells were maintained in an incubator at 37 degrees C and 5% CO2 with 95% humidity. The PDC lines were cultured according to standard operating procedures established by the NCI PDMR (https://pdmr.cancer.gov/sops/default.htm). All PDCs were thawed and cultured in Matrigel-coated flasks prepared with a working solution of 1X Ham's F-12 nutrient mix, without supplementation (Invitrogen, Waltham, MA, cat. 11765054), 100 U/mL penicillin-streptomycin (Invitrogen, cat. 15140122), and 2.5% Matrigel (Corning Inc., Corning, NY, cat. 354248) for the first three passages. The 354836-022-R-J1-PDC, 475296-252-R-J1-PDC, and 997726-040-R-J2-PDC lines were cultured in 6A media, which includes advanced DMEM/F-12 (Thermo Fisher Scientific, cat. 12634028), 10 mM HEPES (Thermo Fisher Scientific, cat. 15630080), 1X GlutaMAX supplement (Thermo Fisher Scientific, cat. 35050061), 0.1 mg/mL primocin (InvivoGen, San Diego, CA, cat. ant-pm-2), 10% defined fetal bovine serum, heat inactivated (HyClone Laboratories Inc., Logan, UT, cat. SH30070.03HI), 50% L-WRN conditioned media (ATCC, cat. CRL-3276), 1.25 mM N-Acetyl-L-cysteine (Sigma-Aldrich, cat. A9165), 10 mM nicotinamide (Sigma-Aldrich, cat. N0636), 1X B-27 supplement (Thermo Fisher Scientific, cat. 17504044), 1X N-2 supplement (Thermo Fisher Scientific, cat. 17502048), and 10 microM Y-27632 dihydrochloride (Tocris Bioscience, Bristol, United Kingdom, cat. 1254). The 624824-186-R-J2-PDC line was cultured in 6C/Colon 1B media, which includes all 6A media components plus 50 ng/mL human EGF recombinant protein (Thermo Fisher Scientific, cat. PHG0311). […]
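Further: spheroids exposed to compounds for seven days before viability read.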
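Wherever viability, T/C is given: luminescence used as a proxy for viable cell amount; percent viability relative to DMSO vehicle control as 100%.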

CC(=O)c1c(C)c2cnc(Nc3ccc(N4CCNCC4)cn3)nc2n(C2CCCC2)c1=O + CC(Nc1ccc2c(c1)OCCn1cc(N3C(=O)OCC3C(F)F)nc1-2)C(N)=O
79.6 nM: IC50 (second compound 1 µM)
> 100 nM: IC50 (second compound 0.00316 µM) | IC50 (second compound 0.01 µM) | IC50 (second compound 0.0316 µM) | IC50 (second compound 0.1 µM) | IC50 (second compound 0.316 µM)
inactive: viability, T/C (second compound 0.00316 µM, first compound 0.000316 µM) 89.9% | viability, T/C (second compound 0.00316 µM, first compound 0.001 µM) 106% | viability, T/C (second compound 0.00316 µM, first compound 0.00316 µM) 103% | viability, T/C (second compound 0.00316 µM, first compound 0.01 µM) 93.9% | viability, T/C (second compound 0.00316 µM, first compound 0.0316 µM) 96.5% | viability, T/C (second compound 0.00316 µM, first compound 0.1 µM) 93.3% | viability, T/C (second compound 0.01 µM, first compound 0.000316 µM) 105% | viability, T/C (second compound 0.01 µM, first compound 0.001 µM) 90.5% | viability, T/C (second compound 0.01 µM, first compound 0.00316 µM) 101% | viability, T/C (second compound 0.01 µM, first compound 0.01 µM) 96.4% | viability, T/C (second compound 0.01 µM, first compound 0.0316 µM) 96.7% | viability, T/C (second compound 0.01 µM, first compound 0.1 µM) 92% | viability, T/C (second compound 0.0316 µM, first compound 0.000316 µM) 101% | viability, T/C (second compound 0.0316 µM, first compound 0.001 µM) 85.3% | viability, T/C (second compound 0.0316 µM, first compound 0.00316 µM) 95.8% | viability, T/C (second compound 0.0316 µM, first compound 0.01 µM) 87.5% | viability, T/C (second compound 0.0316 µM, first compound 0.0316 µM) 92.8% | viability, T/C (second compound 0.0316 µM, first compound 0.1 µM) 81.2% | viability, T/C (second compound 0.1 µM, first compound 0.000316 µM) 82.2% | viability, T/C (second compound 0.1 µM, first compound 0.001 µM) 70% | viability, T/C (second compound 0.1 µM, first compound 0.00316 µM) 85.3% | viability, T/C (second compound 0.1 µM, first compound 0.01 µM) 92.5% | viability, T/C (second compound 0.1 µM, first compound 0.0316 µM) 87.8% | viability, T/C (second compound 0.1 µM, first compound 0.1 µM) 76.5% | viability, T/C (second compound 0.316 µM, first compound 0.000316 µM) 73% | viability, T/C (second compound 0.316 µM, first compound 0.001 µM) 81.6% | viability, T/C (second compound 0.316 µM, first compound 0.00316 µM) 63.4% | viability, T/C (second compound 0.316 µM, first compound 0.01 µM) 64.8% | viability, T/C (second compound 0.316 µM, first compound 0.0316 µM) 70.9% | viability, T/C (second compound 0.316 µM, first compound 0.1 µM) 68.8% | viability, T/C (second compound 1 µM, first compound 0.000316 µM) 58.7% | viability, T/C (second compound 1 µM, first compound 0.001 µM) 72.5% | viability, T/C (second compound 1 µM, first compound 0.00316 µM) 58.9% | viability, T/C (second compound 1 µM, first compound 0.01 µM) 57.7% | viability, T/C (second compound 1 µM, first compound 0.0316 µM) 57.8% | viability, T/C (second compound 1 µM, first compound 0.1 µM) 48.2%
